Structures can show the parent of a compound that is named as a salt.
Columns and labels:
[1] = tested on: N-acetylglycosaminidase (as osteoclastic activity index); conditions: scalp slices of new-born mouse, tissue culture; starting from the 10 μmolar concentration
Description: (§1) A study on a tissue culture (scalp slices of new-born mouse prepared according to the method described by A. Togari, Gen. Pharmacol. 24, 1133, 1993) was performed. At the end of the culture period, the tissue added μmolar concentrations of the title product, was homogenised in saline plus 0.1% Triton X-100.
(§2) The obtained homogenate was used to determine alkaline phosphatase (as osteoblastic activity index) and N-acetylglycosaminidase (as osteoclastic activity index).

[2] = tested on: alkaline phosphatase (as osteoblastic activity index); conditions: scalp slices of new-born mouse, tissue culture; starting from the 10 μmolar concentration
Description: as §1, §2

NCCCC(O)(P(=O)(O)O)P(=O)(O)O [alendronate trometamine, alendronate trometamine salt]
osteoclastic activity (N-acetylglycosaminidase) [1]: inhibit the osteoclastic activity | osteoblastic activity (alkaline phosphatase) [2]: activate in a significant manner the osteoblastic activity
